Measured values from BindingDB's records for doi:10.1016/S0960-894X(97)00207-2 (1997).
pIC50: −log10 of the molar value.

Molecular target: Beta-2 adrenergic receptor (Cavia porcellus) (UniProt Q8K4Z4)
Assay: Tested for beta-2-adrenergic blocking effect by measuring the ability to inhibit the relaxing effect of epinephrine on the isolated tracheal muscle of guinea pigs

Beta-2 adrenergic receptor (Cavia porcellus), sequence (Q8K4Z4 whole entry, looked up): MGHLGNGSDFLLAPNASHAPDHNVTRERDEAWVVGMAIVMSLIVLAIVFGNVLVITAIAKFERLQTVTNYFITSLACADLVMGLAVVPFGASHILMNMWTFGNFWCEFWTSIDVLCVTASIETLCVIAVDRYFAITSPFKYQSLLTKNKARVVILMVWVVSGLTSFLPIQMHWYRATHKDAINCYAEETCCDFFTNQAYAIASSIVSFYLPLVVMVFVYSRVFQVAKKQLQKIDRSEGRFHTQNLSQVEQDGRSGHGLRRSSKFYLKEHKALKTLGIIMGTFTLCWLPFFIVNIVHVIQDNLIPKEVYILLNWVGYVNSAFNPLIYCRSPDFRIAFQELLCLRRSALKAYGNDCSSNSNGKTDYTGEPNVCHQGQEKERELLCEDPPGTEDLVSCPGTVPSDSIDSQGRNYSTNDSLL

COCCc1ccc(OC(F)(F)[C@@H](O)CNC(C)C)cc1 [(S)-1,1-Difluoro-3-isopropylamino-1-[4-(2-methoxy-ethyl)-phenoxy]-propan-2-ol]
pIC50: 5.67
